Tests used:
Assay in all cases: relative viability (nuclei count vs DMSO), 5 days (fraction); higher = more cells survive
[1] = compound: C1=CC=C2C(=C1)N=C(S2)C(C#N)C3=NC(=NC=C3)NCCC4=CN=CC=C4 + COc1cc2c(Oc3ccc(NC(=O)C4(C(=O)Nc5ccc(F)cc5)CC4)cc3F)ccnc2cc1OCCCN1CCOCC1 [Foretinib] (partner 0.25 µM)
Procedure, shortened: (§1)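 Values are medians from duplicate plates. Each reflects relative viability, defined as the nuclei count of treated wells over that of vehicle wells. Lung cancer cell lines in 1536-well plates were pin-tool dosed one day after seeding with one drug alone or with a fixed anchor-drug dose plus five library-drug doses (not always all listed) in √10 steps, then fixed, stained and imaged at 4× after 5 days.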

NVP-TAE684 + Dasatinib = compound: COc1cc(N2CCC(N3CCN(C)CC3)CC2)ccc1Nc1ncc(Cl)c(Nc2ccccc2S(=O)(=O)C(C)C)n1 [NVP-TAE684] + Cc1nc(Nc2ncc(C(=O)Nc3c(C)cccc3Cl)s2)cc(N2CCN(CCO)CC2)n1 [Dasatinib] (partner 0.075 µM)
Procedure, shortened: as §1

Vandetanib + Alpelisib = compound: COc1cc2/c(=N/c3ccc(Br)cc3F)nc[nH]c2cc1OCC1CCN(C)CC1 [Vandetanib] + Cc1nc(NC(=O)N2CCC[C@H]2C(N)=O)sc1-c1ccnc(C(C)(C)C(F)(F)F)c1 [Alpelisib] (partner 2 µM)
Procedure, shortened: as §1

Vandetanib + Phenformin = compound: COc1cc2/c(=N/c3ccc(Br)cc3F)nc[nH]c2cc1OCC1CCN(C)CC1 [Vandetanib] + N=C(N)NC(=N)NCCc1ccccc1 [Phenformin] (partner 250 µM)
Procedure, shortened: as §1

Row | Cell Line | relative viability ([1]; first compound 0.005 µM) | relative viability ([1]; first compound 0.01581 µM) | relative viability ([1]; first compound 0.05 µM) | relative viability ([1]; first compound 0.1581 µM) | relative viability ([1]; first compound 0.5 µM) | relative viability (NVP-TAE684 + Dasatinib; first compound 0.2 µM) | relative viability (NVP-TAE684 + Dasatinib; first compound 0.6325 µM) | relative viability (NVP-TAE684 + Dasatinib; first compound 2 µM) | relative viability (Vandetanib + Alpelisib; first compound 0.02 µM) | relative viability (Vandetanib + Alpelisib; first compound 0.06325 µM) | relative viability (Vandetanib + Alpelisib; first compound 0.2 µM) | relative viability (Vandetanib + Alpelisib; first compound 0.6325 µM) | relative viability (Vandetanib + Alpelisib; first compound 2 µM) | relative viability (Vandetanib + Phenformin; first compound 0.02 µM) | relative viability (Vandetanib + Phenformin; first compound 0.06325 µM) | relative viability (Vandetanib + Phenformin; first compound 0.2 µM) | relative viability (Vandetanib + Phenformin; first compound 0.6325 µM) | relative viability (Vandetanib + Phenformin; first compound 2 µM)
1 | HCC-15 | 0.853 | 1.07 | 0.984 | 1.2 | 1.01 | 0.542 | 0.435 | 0.28 | 0.877 | 0.84 | 0.93 | 0.874 | 0.793 | 0.476 | 0.429 | 0.468 | 0.449 | 0.447
2 | HCC-44 |  |  |  |  |  |  |  |  | 0.799 | 0.812 | 0.999 | 0.807 | 0.762 | 0.186 | 0.223 | 0.175 | 0.242 | 0.121
3 | HCC-78 | 0.473 | 0.526 | 0.523 | 0.559 | 0.504 | 0.298 | 0.24 | 0.306 | 0.346 | 0.32 | 0.337 | 0.321 | 0.288 | 0.744 | 0.638 | 0.662 | 0.664 | 0.627
4 | HCC-366 | 0.832 | 0.839 | 0.872 | 0.915 | 0.923 | 0.827 | 0.508 | 0.233 | 0.44 | 0.289 | 0.328 | 0.528 | 0.226 | 0.596 | 0.603 | 0.62 | 0.586 | 0.505

Reference: the supplement of paper PMC10307832
